PubChem BioAssay AID504726 (Broad Institute, 2011)
Activity calls are given as the source filed them.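 The calls were made as follows: active = fitted half-maximal concentration for a cytotoxic signal drop no higher than ten times the top valid dose tested; inconclusive = flat curve between -70 and -30 percent, or an unreliable fit; inactive = flat within 30 percent, signal rise, or potency beyond limit.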

Assay: viability loss in HeLa cells – cell-based, 24 h, cherry-picked samples, cytotoxicity control, dose response (AID 504726);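 also: 0% = DMSO neutral controls and -100% = mitoxantrone positive controls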
Details: HeLa viability, CellTiter-Glo ATP luminescence, 24 h; at 35 µM (top of the series)

Question: Which activity change, negative = cytotoxicity does the source give for `COc1ccc(OC)c(N2C(=O)NC(=O)/C(=C\c3ccc([N+](=O)[O-])s3)C2=O)c1` here?
Answer: Its activity change, negative = cytotoxicity is -3.62% (inactive).

Question: With `O=C(NCc1cccnc1)C(=O)C1C(=O)Nc2ccccc21` (stereo not given) as the compound, how does the activity change, negative = cytotoxicity read?
Answer: The activity change, negative = cytotoxicity was -6.53% (inactive).

Question: With `CCCn1c(SCC(=O)NCc2cccs2)nc2c1c(=O)n(C)c(=O)n2C` as the compound, how does the activity change, negative = cytotoxicity read?
Answer: Its activity change, negative = cytotoxicity is 7.8% (inactive).

Question: For `Nc1ccc2c(O)cc(S(=O)(=O)O)cc2c1`, which activity change, negative = cytotoxicity is on record?
Answer: Its activity change, negative = cytotoxicity is -11% (inactive).

Question: With `COc1ccc(OC2CCN(S(=O)(=O)c3ccc(OC)cc3)CC2)cc1` as the compound, how does the activity change, negative = cytotoxicity read?
Answer: The activity change, negative = cytotoxicity was -12.1% (inactive).

Question: Which activity change, negative = cytotoxicity does the source give for `CSc1n[nH]c(=O)n1-c1cccc(Cl)c1` here?
Answer: Its activity change, negative = cytotoxicity is 12.8% (inactive).

Question: For `Clc1ccc(-c2nnc3sc(-c4ccc(Br)o4)nn23)cc1`, which activity change, negative = cytotoxicity is on record?
Answer: Its activity change, negative = cytotoxicity is -3.6% (inactive).

Question: With `O=C(O)c1ccccc1NS(=O)(=O)c1ccc(N/N=C/c2ccc(O)c(O)c2)c([N+](=O)[O-])c1` as the compound, how does the activity change, negative = cytotoxicity read?
Answer: Its activity change, negative = cytotoxicity is -10.9% (inactive).

Question: Which activity change, negative = cytotoxicity does the source give for `COC(=O)C1=C(N)OC2=C(C(=O)CCC2)C1c1cccs1` (stereo not given) here?
Answer: The activity change, negative = cytotoxicity was -5.56% (inactive).

Question: For `OCCN(CCO)c1nc(N2CCCCC2)c2nc(N(CCO)CCO)nc(N3CCCCC3)c2n1`, which activity change, negative = cytotoxicity is on record?
Answer: Its activity change, negative = cytotoxicity is -1.48% (inactive).

Question: For `CN(C)CCCNC(=O)c1ccccc1Oc1ccccc1`, which activity change, negative = cytotoxicity is on record?
Answer: Its activity change, negative = cytotoxicity is -6.34% (inactive).

Question: For `COc1ccccc1CNC(=O)CCS(=O)(=O)c1cccs1`, which activity change, negative = cytotoxicity is on record?
Answer: The activity change, negative = cytotoxicity was 4.31% (inactive).

Question: For `COc1cccc(NC(=O)CN(C)C(=O)c2cc3ccccc3cc2OC)c1`, which activity change, negative = cytotoxicity is on record?
Answer: The activity change, negative = cytotoxicity was 6.23% (inactive).

Question: Which activity change, negative = cytotoxicity does the source give for `O=C(O)c1ccc(-n2cccc2/C=C2/NC(=O)N(c3cccc(Cl)c3)C2=O)cc1` here?
Answer: Its activity change, negative = cytotoxicity is -3.84% (inactive).

Question: For `CCOC(=O)C1Nc2ccc(C(=O)O)cc2C2C=CCC12` (stereo not given), which activity change, negative = cytotoxicity is on record?
Answer: The activity change, negative = cytotoxicity was -9.32% (inactive).

Question: Which activity change, negative = cytotoxicity does the source give for `O=C(O)c1[nH]c2ccccc2c1C(c1cc(Cl)cc([N+](=O)[O-])c1O)c1c(C(=O)O)[nH]c2ccccc12` here?
Answer: The activity change, negative = cytotoxicity was -6.4% (inactive).

Question: Which activity change, negative = cytotoxicity does the source give for `O=C(NCCCO)c1ccc2nc(-c3ccco3)c(-c3ccco3)nc2c1` here?
Answer: Its activity change, negative = cytotoxicity is -12.3% (inactive).

Question: For `CS(=O)(=O)c1cccc(C(=O)Oc2ccccc2)c1`, which activity change, negative = cytotoxicity is on record?
Answer: The activity change, negative = cytotoxicity was 5.26% (inactive).

Question: Which activity change, negative = cytotoxicity does the source give for `CC(C(=O)O)N1C(=O)/C(=C/C=C/c2ccco2)SC1=S` (stereo not given) here?
Answer: Its activity change, negative = cytotoxicity is -13.5% (inactive).

Question: Which activity change, negative = cytotoxicity does the source give for `CC(C(=O)Nc1ccc(C(=O)O)c(O)c1)N1C(=O)/C(=C\c2ccco2)SC1=S` (stereo not given) here?
Answer: The activity change, negative = cytotoxicity was -7.47% (inactive).

Question: With `COC(=O)Cn1c(=NC(=O)c2sc3ccccc3c2Cl)sc2cc(S(N)(=O)=O)ccc21` as the compound, how does the activity change, negative = cytotoxicity read?
Answer: Its activity change, negative = cytotoxicity is -2.51% (inactive).

Question: For `CSc1ccc(/C=N/Nc2cccc(C(=O)O)c2)cc1`, which activity change, negative = cytotoxicity is on record?
Answer: Its activity change, negative = cytotoxicity is -13% (inactive).

Question: For `Cc1ccc2cccc(OCC(=O)NCCC3=CCCCC3)c2n1`, which activity change, negative = cytotoxicity is on record?
Answer: The activity change, negative = cytotoxicity was -6.65% (inactive).

Question: Which activity change, negative = cytotoxicity does the source give for `O=C(O)c1ccccc1C1=Nc2ccc(O)cc2Oc2cc(O)ccc21` here?
Answer: Its activity change, negative = cytotoxicity is -3.9% (inactive).

Question: For `COc1cccc(NC(=S)N2CCN(C(c3ccccc3)c3ccccc3)CC2)c1`, which activity change, negative = cytotoxicity is on record?
Answer: Its activity change, negative = cytotoxicity is -2.14% (inactive).

Question: For `Cc1cc(NC(=O)CSc2nnc(COc3cccc(C)c3C)n2C)no1`, which activity change, negative = cytotoxicity is on record?
Answer: Its activity change, negative = cytotoxicity is 6.24% (inactive).

Question: With `COc1ccc(NC(=O)Cc2nnc(SCC(=O)Nc3nccs3)n2C)cc1` as the compound, how does the activity change, negative = cytotoxicity read?
Answer: Its activity change, negative = cytotoxicity is 5.46% (inactive).

Question: For `NNC(=O)C1C(O)CCC2CN3CCc4c([nH]c5ccccc45)C3CC21` (stereo not given), which activity change, negative = cytotoxicity is on record?
Answer: Its activity change, negative = cytotoxicity is -12.3% (inactive).

Question: For `CCOC(=O)C1(Cc2cccc(F)c2)CCN(Cc2c(C)nn(CC)c2C)CC1`, which activity change, negative = cytotoxicity is on record?
Answer: The activity change, negative = cytotoxicity was 0.828% (inactive).

Question: Which activity change, negative = cytotoxicity does the source give for `CC(C)Cc1nc(SCC(=O)Nc2nnc(CC(C)C)s2)n[nH]1` here?
Answer: Its activity change, negative = cytotoxicity is -15% (inactive).

Question: With `CCn1c(O)c(N=Nc2cccc(S(=O)(=O)N3CCOCC3)c2)c(=O)n(CC)c1=S` as the compound, how does the activity change, negative = cytotoxicity read?
Answer: Its activity change, negative = cytotoxicity is 7.72% (inactive).

Question: For `CC(C(=O)Nc1ccccc1)N1C(=O)c2ccccc2C1=O` (stereo not given), which activity change, negative = cytotoxicity is on record?
Answer: Its activity change, negative = cytotoxicity is -8.7% (inactive).

Question: For `O=C(Cn1c2ccccc2c2nc3n(c(=O)c21)CCS3)Nc1ccccc1C(F)(F)F`, which activity change, negative = cytotoxicity is on record?
Answer: Its activity change, negative = cytotoxicity is -2.68% (inactive).

Question: For `O=C(CN1CC[C@@]2(O)CCCC[C@H]2[C@@H]1c1ccc(F)cc1)NCc1ccco1`, which activity change, negative = cytotoxicity is on record?
Answer: The activity change, negative = cytotoxicity was -5.52% (inactive).

Question: Which activity change, negative = cytotoxicity does the source give for `CC(C)N(Cc1ccccc1)C(=O)Cn1c(=O)cnc2ccccc21` here?
Answer: Its activity change, negative = cytotoxicity is 0.817% (inactive).

Question: Which activity change, negative = cytotoxicity does the source give for `COc1ccc(N(CC(=O)NCc2ccc3c(c2)OCO3)C(=O)c2csnn2)cc1` here?
Answer: Its activity change, negative = cytotoxicity is 3.04% (inactive).

Question: With `CN1CCN(CCCNC(=O)c2cc3c(-c4ccc(Cl)cc4)nn(C)c3s2)CC1` as the compound, how does the activity change, negative = cytotoxicity read?
Answer: The activity change, negative = cytotoxicity was -18.2% (inactive).

Question: For `COc1ccc(Br)cc1CNC(=O)CCCc1cn(C)c2ccccc12`, which activity change, negative = cytotoxicity is on record?
Answer: Its activity change, negative = cytotoxicity is -12.1% (inactive).

Question: For `Cc1ccc(N2CC(C(=O)Nc3nnc(SCC(=O)Nc4nc(C)cs4)s3)CC2=O)cc1` (stereo not given), which activity change, negative = cytotoxicity is on record?
Answer: Its activity change, negative = cytotoxicity is -3.6% (inactive).

Question: With `S=c1c2c(nc3nc[nH]n13)CCC2` as the compound, how does the activity change, negative = cytotoxicity read?
Answer: Its activity change, negative = cytotoxicity is -7.9% (inactive).

Question: With `CSc1nc(SC(C)C(=O)O)c2c3c(sc2n1)COC(C)(C)C3` (stereo not given) as the compound, how does the activity change, negative = cytotoxicity read?
Answer: Its activity change, negative = cytotoxicity is -9.35% (inactive).

Question: With `COc1cc(OC)cc(C(=O)NC2CC3CCC(C2)N3C)c1` (stereo not given) as the compound, how does the activity change, negative = cytotoxicity read?
Answer: The activity change, negative = cytotoxicity was 3.6% (inactive).

Question: Which activity change, negative = cytotoxicity does the source give for `Cn1c(=O)c(NCCc2ccccc2)c2c3c(cccc31)C(=O)c1ccccc1-2` here?
Answer: The activity change, negative = cytotoxicity was -38.4% (inactive).

Question: Which activity change, negative = cytotoxicity does the source give for `Cc1ccc(NC(=O)CN(C)C(=O)c2nn(C)c(=O)c3ccccc23)cc1` here?
Answer: Its activity change, negative = cytotoxicity is -13.7% (inactive).

Question: With `NC1=NC[C@@H](Cc2ccc(O)cc2)N1CCc1cc(C(F)(F)F)cc(C(F)(F)F)c1` as the compound, how does the activity change, negative = cytotoxicity read?
Answer: Its activity change, negative = cytotoxicity is -9.29% (inactive).

Question: Which activity change, negative = cytotoxicity does the source give for `COc1ccc(-c2cc(C(=O)N(C)CCc3ccc(OC)c(OC)c3)c3ccccc3n2)cc1` here?
Answer: The activity change, negative = cytotoxicity was -7.16% (inactive).

Question: For `Nc1nc(SCC(=O)N2CCCCC2)[nH]c(=O)c1NC(=O)c1cccs1`, which activity change, negative = cytotoxicity is on record?
Answer: The activity change, negative = cytotoxicity was -0.747% (inactive).

Question: With `O=C(O)CCCN1C(=O)/C(=C/C=C/c2ccco2)SC1=S` as the compound, how does the activity change, negative = cytotoxicity read?
Answer: Its activity change, negative = cytotoxicity is -9.04% (inactive).

Question: For `O=C(O)CN1C(=O)/C(=C\c2cc(Br)ccc2OCc2ccc([N+](=O)[O-])cc2)SC1=S`, which activity change, negative = cytotoxicity is on record?
Answer: The activity change, negative = cytotoxicity was -1.76% (inactive).

Question: With `Cc1cc(=O)oc2cc(OCC(=O)N3CCN(Cc4ccc5c(c4)OCO5)CC3)ccc12` as the compound, how does the activity change, negative = cytotoxicity read?
Answer: The activity change, negative = cytotoxicity was -5.71% (inactive).

Question: With `COC(=O)c1c(C)oc2ccc(N(C(C)=O)S(=O)(=O)c3ccccc3)cc12` as the compound, how does the activity change, negative = cytotoxicity read?
Answer: Its activity change, negative = cytotoxicity is 1.25% (inactive).

Question: With `COc1ccc(OC)c(NC(=O)c2nnn(Cc3ccc(Br)cc3F)c2N)c1` as the compound, how does the activity change, negative = cytotoxicity read?
Answer: The activity change, negative = cytotoxicity was -9.89% (inactive).

Question: For `O=C(O)C1Nc2c(O)cc(Cl)c([N+](=O)[O-])c2C2C=CCC12` (stereo not given), which activity change, negative = cytotoxicity is on record?
Answer: Its activity change, negative = cytotoxicity is -21.5% (inactive).

Question: Which activity change, negative = cytotoxicity does the source give for `Cc1ccccc1N1C(=O)c2cccc3c(N(C)CCO)ccc(c23)C1=O` here?
Answer: Its activity change, negative = cytotoxicity is -13.3% (inactive).

Question: For `O=c1oc2ccccc2nc1/C=C(\O)c1ccc(Br)cc1`, which activity change, negative = cytotoxicity is on record?
Answer: The activity change, negative = cytotoxicity was -12.7% (inactive).

Question: Which activity change, negative = cytotoxicity does the source give for `COC(=O)C1=COC(C)C2CN3CCc4c([nH]c5ccccc45)C3CC12` (stereo not given) here?
Answer: The activity change, negative = cytotoxicity was -14.1% (inactive).

Question: Which activity change, negative = cytotoxicity does the source give for `Oc1ccc(-c2nc3ccccn3c2NCc2ccco2)cc1` here?
Answer: The activity change, negative = cytotoxicity was -4.28% (inactive).

Question: For `CCN(Cc1ccccc1)C(=O)c1cccc(S(=O)(=O)N2CCN(Cc3ccccc3)CC2)c1`, which activity change, negative = cytotoxicity is on record?
Answer: The activity change, negative = cytotoxicity was 1.39% (inactive).

Question: With `O=C(CN1C(=O)/C(=C/c2ccco2)SC1=S)Nc1ccc(C(=O)O)c(O)c1` as the compound, how does the activity change, negative = cytotoxicity read?
Answer: Its activity change, negative = cytotoxicity is -0.625% (inactive).

Question: With `COc1ccc(C(=O)OCC(=O)NC2CC2)cc1S(=O)(=O)Nc1ccc(C)cc1` as the compound, how does the activity change, negative = cytotoxicity read?
Answer: The activity change, negative = cytotoxicity was 3.27% (inactive).
